The supplement of paper PMC10307832

Experiments:
Experiment in all cases: relative viability (nuclei count vs DMSO), 5 days (fraction); higher = more cells survive
[1] = compound: C=CCc1cccc(/C=N/NC(=O)CN2CCN(Cc3ccccc3)CC2)c1O [PAC-1] + C[C@@H](Oc1cc(-c2cnn(C3CCNCC3)c2)cnc1N)c1c(Cl)ccc(F)c1Cl [Crizotinib] (partner 1 µM)
Procedure, shortened: (§1)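 A single step with final 0.05% Triton X-100, 1% formaldehyde and 1 ug/ml Hoechst fixed the cells and stained nuclei 5 days after treatment. Lung cancer cell lines in 1536-well plates had been treated by pin tool the day after seeding with one drug alone or a fixed anchor-drug dose plus five library-drug doses (not always all listed) in √10 steps, and nuclei were counted on 4× images. Relative viability is the ratio of nuclei in treated wells to nuclei in vehicle wells, taken as the median of duplicate plates.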

[2] = compound: C=CCc1cccc(/C=N/NC(=O)CN2CCN(Cc3ccccc3)CC2)c1O [PAC-1] + N=C(N)NC(=N)NCCc1ccccc1 [Phenformin] (partner 250 µM)
Procedure, shortened: as §1

[3] = compound: C=CCc1cccc(/C=N/NC(=O)CN2CCN(Cc3ccccc3)CC2)c1O [PAC-1] + COc1cccc2cc(-c3nc([C@H]4CC[C@H](C(=O)O)CC4)n4ncnc(N)c34)[nH]c12 [OSI-027] (partner 0.5 µM)
Procedure, shortened: as §1

[4] = compound: C=CC(=O)Nc1cc(-n2c(=O)ccc3cnc4ccc(-c5ccc(NS(C)(=O)=O)cc5)cc4c32)ccc1C [BMX-IN-1] + CC(C)C[C@H](NC(=O)[C@H](Cc1ccccc1)NC(=O)c1cnccn1)B(O)O [Bortezomib] (partner 0.002 µM)
Procedure, shortened: as §1

[5] = compound: C=CC(=O)Nc1cc(-n2c(=O)ccc3cnc4ccc(-c5ccc(NS(C)(=O)=O)cc5)cc4c32)ccc1C [BMX-IN-1] + NC(=O)Nc1cc(-c2cccc(F)c2)sc1C(=O)N[C@H]1CCCNC1 [AZD7762] (partner 0.2 µM)
Procedure, shortened: as §1

Row | Cell Line | relative viability ([1]; first compound 0.02 µM) | relative viability ([1]; first compound 0.06325 µM) | relative viability ([1]; first compound 0.2 µM) | relative viability ([1]; first compound 2 µM) | relative viability ([2]; first compound 0.02 µM) | relative viability ([2]; first compound 0.06325 µM) | relative viability ([2]; first compound 0.2 µM) | relative viability ([2]; first compound 2 µM) | relative viability ([3]; first compound 0.02 µM) | relative viability ([3]; first compound 0.06325 µM) | relative viability ([3]; first compound 0.2 µM) | relative viability ([3]; first compound 2 µM) | relative viability ([4]; first compound 0.02 µM) | relative viability ([4]; first compound 0.2 µM) | relative viability ([4]; first compound 0.6325 µM) | relative viability ([4]; first compound 2 µM) | relative viability ([5]; first compound 0.02 µM) | relative viability ([5]; first compound 0.2 µM) | relative viability ([5]; first compound 0.6325 µM) | relative viability ([5]; first compound 2 µM)
1 | 201T | 1.07 | 1.09 | 1.02 | 1.05 | 0.43 | 0.47 | 0.468 | 0.453 | 0.702 | 0.754 | 0.848 | 0.839 | 1.13 | 1.07 | 1.12 | 1.1 | 0.728 | 0.63 | 0.662 | 0.56
2 | A549 | 0.747 | 0.793 | 0.706 | 0.77 | 0.22 | 0.167 | 0.139 | 0.171 | – | – | – | – | – | – | – | – | – | – | – | –
3 | A-427 | 0.896 | 1.01 | 0.797 | 0.836 | 0.328 | 0.384 | 0.338 | 0.279 | 0.434 | 0.481 | 0.47 | 0.476 | 1.03 | 1.06 | 1.18 | 0.985 | 0.796 | 1.14 | 0.84 | 0.806
4 | ABC-1 | 1.09 | 1.16 | 1.11 | 1.34 | 0.217 | 0.231 | 0.24 | 0.21 | 0.478 | 0.44 | 0.468 | 0.457 | 0.34 | 0.302 | 0.244 | 0.306 | 0.761 | 0.848 | 0.82 | 0.868
5 | BEN | 0.92 | 0.882 | 0.804 | 0.832 | 0.273 | 0.282 | 0.266 | 0.302 | 0.303 | 0.264 | 0.291 | 0.289 | 0.808 | 0.95 | 0.7 | 0.772 | 0.747 | 0.706 | 0.69 | 0.707
6 | CAL-12T | 0.72 | 0.828 | 0.551 | 0.578 | 0.6 | 0.657 | 0.542 | 0.571 | 0.673 | 0.723 | 0.567 | 0.645 | 0.92 | 0.785 | 1.17 | 0.949 | 0.665 | 0.76 | 0.647 | 0.613
7 | COR-L23 | 0.646 | 0.607 | 0.599 | 0.624 | 0.458 | 0.434 | 0.423 | 0.429 | 0.885 | 0.771 | 0.724 | 0.698 | 1.27 | 1.54 | 1.09 | 1.05 | – | – | – | –
8 | COR-L 105 | 0.873 | 0.915 | 0.774 | 0.64 | 0.465 | 0.484 | 0.428 | 0.455 | 0.756 | 0.669 | 0.615 | 0.756 | 0.965 | 0.697 | 1.03 | 0.659 | – | – | – | –
9 | Calu-6 | 0.728 | 0.823 | 0.8 | 0.867 | – | – | – | – | – | – | – | – | 1.03 | 1.09 | 1.31 | 1.07 | – | – | – | –
10 | ChaGo-K-1 | 1.15 | 1.17 | 1.09 | 1.03 | 0.462 | 0.493 | 0.513 | 0.439 | 0.623 | 0.617 | 0.57 | 0.635 | 1.08 | 1.1 | 1.31 | 1.17 | 1.02 | 1.02 | 0.885 | 0.907
11 | EBC-1 | 0.194 | 0.175 | 0.201 | 0.178 | – | – | – | – | – | – | – | – | 0.574 | 0.581 | 0.626 | 0.598 | – | – | – | –
12 | EKVX | 1.19 | 1.22 | 0.893 | 0.866 | 0.232 | 0.244 | 0.226 | 0.195 | 0.744 | 0.674 | 0.696 | 0.702 | 1.42 | 1.23 | 1.11 | 1.19 | 1.02 | 0.81 | 0.843 | 0.723
13 | EMC-BAC-2 | 0.771 | 0.709 | 0.796 | 0.72 | 0.496 | 0.556 | 0.52 | 0.511 | 0.367 | 0.363 | 0.371 | 0.382 | 1.15 | 1.1 | 1.26 | 1.1 | 1.32 | 1.31 | 1.1 | 1.14
14 | EPLC-272H | – | 0.95 | 0.789 | 0.818 | 0.298 | 0.339 | 0.241 | 0.288 | 0.312 | 0.27 | 0.22 | 0.262 | 1.28 | 1.09 | 0.872 | 0.887 | 0.231 | 0.217 | 0.476 | 0.202
15 | H3255 | 0.936 | 0.848 | 0.82 | 0.825 | 0.398 | 0.394 | 0.334 | 0.308 | 0.604 | 0.487 | 0.558 | 0.611 | 0.916 | 0.466 | 0.99 | 0.732 | 0.93 | 0.866 | 1.05 | 0.874
16 | HARA | 0.955 | 1.03 | 1.01 | 1.06 | 0.438 | 0.476 | 0.446 | 0.507 | 0.487 | 0.54 | 0.426 | 0.504 | 1.14 | 1.62 | 1.16 | 1.22 | 0.47 | 0.454 | 0.26 | 0.322
17 | HCC-15 | 0.788 | 0.878 | 0.785 | 0.82 | 0.466 | 0.487 | 0.457 | 0.491 | 0.668 | 0.726 | 0.672 | 0.684 | 1.25 | 1.06 | 1.24 | 1.1 | 0.591 | 1.24 | 1.35 | 1.29
18 | IA-LM | 0.862 | 0.865 | 0.75 | 0.751 | – | – | – | – | – | – | – | – | 0.884 | 0.928 | 0.984 | 0.884 | – | – | – | –
